Test system: S. aureus strain Newman
Assay: S. aureus model of systemic infection in the mouse
Assay type: in vivo, Staphylococcus aureus
Conditions: CD-1 female mice, i.p. 10^7 CFU S. aureus Newman; oral gavage 15 mg/kg at 1 hour post-infection; kidneys 5 hours after inoculation; FIG. 3
Experimental: In vivo efficacy. The antimicrobial activity of compounds was also evaluated in a S. aureus model of systemic infection in the mouse. To produce the systemic infection, CD-1 female mice (20 g) were injected intra-peritoneally with 10^7 CFU of S. aureus strain Newman suspended in 0.5 ml of endotoxin-free PBS containing 5% mucin (w/v). The compounds were administrated by oral gavage (15 mg/kg) at 1 hour post-infection and kidneys harvested and pooled, for each animal, 5 hours after bacterial inoculation. Tissues were homogenized in PBS and homogenates serially diluted and plated for CFU determination.

In the case of `O=[N+]([O-])c1ccc(C=Cc2nc(Nc3ccc(O)cc3)c3cc(F)ccc3n2)o1` [Compound V, 6-fluoro-2-[2-(5-nitro-2-furyl)vinyl]-4-(p-hydroxyanilino)-quinazoline], the “viable bacteria in the kidneys” value was “reduced significantly”.

Reference: patent US7410974B2, “Halogenated Quinazolinyl nitrofurans as antibacterial agents” (Ulysses Pharmaceutical Products, Inc., priority 2003, dated 2008)
